In ChEMBL document CHEMBL1201862, “PubChem BioAssay data set” (2004):
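96-well plates; 48 h exposure; 5 concentrations. Endpoints by linear interpolation between flanking doses. Not reached: highest tested concentration assigned. GI50 marks 50% less growth.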 Activity calls are given as the source filed them. Cut-off read from the data, not from the text of the source: active = GI50 up to about 1.1 µM and inactive = higher.

Tests used:
Test in all cases: NCI anticancer screen, dose series, 48 h
RPMI-8226 = test system: RPMI-8226
NCI-H226 = test system: NCI-H226
MOLT-4 = test system: MOLT-4
SK-MEL-5 = test system: SK-MEL-5
BT-549 = test system: BT-549
SK-MEL-2 = test system: SK-MEL-2
ACHN = test system: ACHN
HCC 2998 = test system: HCC 2998
PC-3 = test system: PC-3
HCT-15 = test system: HCT-15
OVCAR-3 = test system: OVCAR-3
786-0 = test system: 786-0
MDA-MB-435 = test system: MDA-MB-435
SNB-19 = test system: SNB-19
MCF7 = test system: MCF7
HL-60 = test system: HL-60
Hs-578T = test system: Hs-578T
DU-145 = test system: DU-145
HOP-62 = test system: HOP-62
RXF 393 = test system: RXF 393

SMILES	GI50 (RPMI-8226)	GI50 (NCI-H226)	GI50 (MOLT-4)	GI50 (SK-MEL-5)	GI50 (BT-549)	GI50 (SK-MEL-2)	GI50 (ACHN)	GI50 (HCC 2998)	GI50 (PC-3)	GI50 (HCT-15) [µM]	GI50 (OVCAR-3)	GI50 (786-0)	GI50 (MDA-MB-435)	GI50 (SNB-19)	GI50 (MCF7)	GI50 (HL-60)	GI50 (Hs-578T)	GI50 (DU-145)	GI50 (HOP-62)	GI50 (RXF 393)
COc1cccc(CC(=O)N2CCN(CCCc3ccccc3)CC2)c1	43.6 µM (inactive)	> 100 µM (inactive)	54.7 µM (inactive)	23.2 µM (inactive)	33.8 µM (inactive)	> 100 µM (inactive)	83.8 µM (inactive)	98.4 µM (inactive)	> 100 µM (inactive)	45.9	60.1 µM (inactive)	> 100 µM (inactive)	70.6 µM (inactive)	> 100 µM (inactive)	60.3 µM (inactive)	61.2 µM (inactive)	> 100 µM (inactive)	> 100 µM (inactive)	> 100 µM (inactive)	–
O=C1OC(c2ccccc2)=N/C1=C\c1cccc(F)c1	19.7 µM (inactive)	25.9 µM (inactive)	32.3 µM (inactive)	51.4 µM (inactive)	32.4 µM (inactive)	> 100 µM (inactive)	> 100 µM (inactive)	72.3 µM (inactive)	> 100 µM (inactive)	> 100	37 µM (inactive)	51.9 µM (inactive)	75 µM (inactive)	55 µM (inactive)	> 100 µM (inactive)	24.9 µM (inactive)	36.3 µM (inactive)	> 100 µM (inactive)	38.6 µM (inactive)	> 100 µM (inactive)
Cc1ccc(S(=O)(=O)N2CCN(CCO)CCN(S(=O)(=O)c3ccc(C)cc3)CCN(CCO)CC2)cc1	–	20.9 µM (inactive)	19.7 µM (inactive)	13.6 µM (inactive)	60.8 µM (inactive)	16.5 µM (inactive)	31 µM (inactive)	15.4 µM (inactive)	33 µM (inactive)	18.6	18.7 µM (inactive)	23.6 µM (inactive)	15.1 µM (inactive)	37.8 µM (inactive)	13.4 µM (inactive)	18 µM (inactive)	30.1 µM (inactive)	15 µM (inactive)	27.5 µM (inactive)	13.9 µM (inactive)
COc1ccc(C2=Cc3nc2c(-c2ccccc2)c2ccc([nH]2)c(-c2ccccc2)c2nc(c(-c4ccccc4)c4ccc([nH]4)c3-c3ccccc3)C=C2)cc1	–	> 100 µM (inactive)	> 100 µM (inactive)	> 100 µM (inactive)	> 100 µM (inactive)	> 100 µM (inactive)	> 100 µM (inactive)	> 100 µM (inactive)	> 100 µM (inactive)	> 100	> 100 µM (inactive)	> 100 µM (inactive)	> 100 µM (inactive)	48.2 µM (inactive)	> 100 µM (inactive)	> 100 µM (inactive)	> 100 µM (inactive)	> 100 µM (inactive)	> 100 µM (inactive)	> 100 µM (inactive)
O=C1c2ccccc2-n2c1nc1ccc([N+](=O)[O-])cc1c2=O	25.2 µM (inactive)	25.6 µM (inactive)	26.3 µM (inactive)	95.9 µM (inactive)	> 100 µM (inactive)	–	58.9 µM (inactive)	> 100 µM (inactive)	> 100 µM (inactive)	29.3	21.1 µM (inactive)	46.5 µM (inactive)	> 10 µM (inactive)	> 100 µM (inactive)	11.7 µM (inactive)	13.9 µM (inactive)	> 100 µM (inactive)	> 100 µM (inactive)	30.6 µM (inactive)	60.4 µM (inactive)
O=c1c2c3ccccc3[nH]c2c2cccc3c2n1CCC3	–	50.6 µM (inactive)	25.5 µM (inactive)	17.6 µM (inactive)	29.6 µM (inactive)	–	41.1 µM (inactive)	29.2 µM (inactive)	26.8 µM (inactive)	32.4	30.6 µM (inactive)	4.27 µM (inactive)	54.6 µM (inactive)	> 100 µM (inactive)	35.1 µM (inactive)	–	21.2 µM (inactive)	> 100 µM (inactive)	54.1 µM (inactive)	29.4 µM (inactive)
O=c1ccn([C@@H]2C[C@@H]2CO)c(=O)[nH]1	> 100 µM (inactive)	> 100 µM (inactive)	–	> 100 µM (inactive)	> 100 µM (inactive)	> 100 µM (inactive)	> 100 µM (inactive)	> 100 µM (inactive)	> 100 µM (inactive)	> 100	–	> 100 µM (inactive)	> 100 µM (inactive)	> 100 µM (inactive)	> 100 µM (inactive)	> 100 µM (inactive)	> 100 µM (inactive)	> 100 µM (inactive)	> 100 µM (inactive)	> 100 µM (inactive)
Cn1c([C@H](C#N)C(=O)c2cc(O)ccc2[N+](=O)[O-])nc2ccccc21	> 100 µM (inactive)	–	4.2 µM (inactive)	> 100 µM (inactive)	16 µM (inactive)	> 100 µM (inactive)	> 100 µM (inactive)	> 100 µM (inactive)	> 100 µM (inactive)	> 100	> 100 µM (inactive)	> 100 µM (inactive)	9.51 µM (inactive)	> 100 µM (inactive)	> 100 µM (inactive)	> 100 µM (inactive)	> 100 µM (inactive)	> 100 µM (inactive)	> 100 µM (inactive)	–
Cc1cccc(/C=N/NC(=S)Nc2ccccc2)n1	3.48 µM (inactive)	6.37 µM (inactive)	3.27 µM (inactive)	3.08 µM (inactive)	7.53 µM (inactive)	3.2 µM (inactive)	2.6 µM (inactive)	5.64 µM (inactive)	6 µM (inactive)	1.98	1.97 µM (inactive)	2.27 µM (inactive)	7.6 µM (inactive)	11.9 µM (inactive)	2.89 µM (inactive)	–	20.1 µM (inactive)	4.18 µM (inactive)	2.93 µM (inactive)	5.48 µM (inactive)
CC1=NN(C(=O)CC(=O)Nc2cccc(Cl)c2)C(=O)C1/N=N/c1ccc(C(=O)O)cc1 (stereo unspecified)	> 100 µM (inactive)	–	78.5 µM (inactive)	> 100 µM (inactive)	> 100 µM (inactive)	> 100 µM (inactive)	> 100 µM (inactive)	> 100 µM (inactive)	> 100 µM (inactive)	> 100	> 100 µM (inactive)	> 100 µM (inactive)	> 100 µM (inactive)	> 100 µM (inactive)	> 100 µM (inactive)	> 100 µM (inactive)	> 100 µM (inactive)	> 100 µM (inactive)	> 100 µM (inactive)	> 100 µM (inactive)
COC(=O)[C@@H]1COC(C(C)(C)C)N1C(=O)C(c1ccccc1)c1ccccc1 (stereo partly specified)	–	49.7 µM (inactive)	38.7 µM (inactive)	36.8 µM (inactive)	> 100 µM (inactive)	90.2 µM (inactive)	69.3 µM (inactive)	48.3 µM (inactive)	24.8 µM (inactive)	35.4	39.2 µM (inactive)	46.2 µM (inactive)	36.7 µM (inactive)	40.9 µM (inactive)	64.3 µM (inactive)	45.3 µM (inactive)	55.5 µM (inactive)	> 100 µM (inactive)	> 100 µM (inactive)	13.2 µM (inactive)
Nc1nc(N)nc(CCCCc2nc(N)nc(N)n2)n1	> 100 µM (inactive)	> 100 µM (inactive)	> 100 µM (inactive)	> 100 µM (inactive)	> 100 µM (inactive)	> 100 µM (inactive)	> 100 µM (inactive)	–	> 100 µM (inactive)	> 100	> 100 µM (inactive)	> 100 µM (inactive)	> 100 µM (inactive)	> 100 µM (inactive)	> 100 µM (inactive)	> 100 µM (inactive)	> 100 µM (inactive)	> 100 µM (inactive)	> 100 µM (inactive)	> 100 µM (inactive)
CCOC(=O)C1=C(C)NC(C)=C(C(=O)OCC)C1c1ccc(C)cc1	30.3 µM (inactive)	35 µM (inactive)	25.9 µM (inactive)	18.8 µM (inactive)	52.8 µM (inactive)	39.8 µM (inactive)	43 µM (inactive)	73.6 µM (inactive)	24.5 µM (inactive)	25.8	21.1 µM (inactive)	20 µM (inactive)	35.4 µM (inactive)	63.1 µM (inactive)	11.2 µM (inactive)	–	39.2 µM (inactive)	71.9 µM (inactive)	46.5 µM (inactive)	29.1 µM (inactive)
CCCC[C@@H](C)/C=C1\CN2CCC[C@H]2[C@@](C)(OCc2ccccc2)[C@@H]1O	> 15.5 µM (inactive)	> 50 µM (inactive)	> 41.9 µM (inactive)	> 50 µM (inactive)	> 50 µM (inactive)	> 50 µM (inactive)	> 50 µM (inactive)	> 50 µM (inactive)	> 50 µM (inactive)	> 50	> 17.5 µM (inactive)	> 47.4 µM (inactive)	> 50 µM (inactive)	> 23.8 µM (inactive)	> 50 µM (inactive)	–	> 50 µM (inactive)	> 14.4 µM (inactive)	5.98 µM (inactive)	> 44.6 µM (inactive)
Cc1ccc(N/C(Sc2ccccc2)=C(/C(Cl)=C(Cl)Cl)[N+](=O)[O-])c(C)c1	20.3 µM (inactive)	24.6 µM (inactive)	19.6 µM (inactive)	25.1 µM (inactive)	15.5 µM (inactive)	19.5 µM (inactive)	32.8 µM (inactive)	17.7 µM (inactive)	17.7 µM (inactive)	16.8	–	16.5 µM (inactive)	14.4 µM (inactive)	22.3 µM (inactive)	14.4 µM (inactive)	18.2 µM (inactive)	44.4 µM (inactive)	36.1 µM (inactive)	23.8 µM (inactive)	–
